Experimental data: patent US20250332183A1, “COMPOSITIONS AND METHODS FOR THE STIMULATION OF INTERMEDIATE MACROPHAGES AND TREATMENTS THEREWITH” (priority 2024, published 2025)
Entries after “also recorded” stand apart in the source; their conditions may differ. Like-named read-outs stand apart in the source and are kept apart here.

How the values were obtained:
[1] = Plasma pharmacokinetics of AVR-48 after iv dosing in preterm lambs; format: in vivo, lamb
Description: Formulation and dosing of AVR-48. AVR-48 (3 mg/mL) was formulated in 0.9% sterile saline and filtered through a 0.2-micron syringe filter into 10 mL serum vials ready for dosing. The efficacy dose was determined in a pilot study by stepwise escalating the AVR-48 dose concentrations. […] The vehicle control groups received 0.9% sterile saline every 12 hours (h).
Pharmacokinetic study. The pharmacokinetics (PK) of AVR-48 were determined using plasma from the PT lambs following twice daily IV infusion (10 min) of AVR-48 every 12 h for 7 days. Tested doses were 0 (n=2), 0.1 (n=1), 0.3 (n=1), 1.0 (n=2), 3.0 (n=3), and 9 (n=1) mg/kg. PK evaluation for AVR-48 was only performed for DOL1 (12 time points between 0 and 12 h after the initial dose; volume of plasma samples through DOL2-7 was inadequate for PK evaluation). Quality-controlled plasma bioanalytical data were transferred from the Bioanalytical group to the PK Scientist of the Biopharmaceutics Department of Pharmascience Inc. Samples were analyzed, using Phoenix WinNonlin software, version 8.1 (Certara, USA), using a previously standardized HPLC/LC/MS method.

[2] = target: T1, CD163 scavenger receptor (Homo sapiens, UniProt Q86VB7); assay: Binding of AVR-48 to CBMC monocytes and lymphocytes by flow cytometry
T1 construct: endogenous in cells; host or cells: human cord blood mononuclear cells (monocytes and lymphocytes)
T1 sequence (Q86VB7 42-1156): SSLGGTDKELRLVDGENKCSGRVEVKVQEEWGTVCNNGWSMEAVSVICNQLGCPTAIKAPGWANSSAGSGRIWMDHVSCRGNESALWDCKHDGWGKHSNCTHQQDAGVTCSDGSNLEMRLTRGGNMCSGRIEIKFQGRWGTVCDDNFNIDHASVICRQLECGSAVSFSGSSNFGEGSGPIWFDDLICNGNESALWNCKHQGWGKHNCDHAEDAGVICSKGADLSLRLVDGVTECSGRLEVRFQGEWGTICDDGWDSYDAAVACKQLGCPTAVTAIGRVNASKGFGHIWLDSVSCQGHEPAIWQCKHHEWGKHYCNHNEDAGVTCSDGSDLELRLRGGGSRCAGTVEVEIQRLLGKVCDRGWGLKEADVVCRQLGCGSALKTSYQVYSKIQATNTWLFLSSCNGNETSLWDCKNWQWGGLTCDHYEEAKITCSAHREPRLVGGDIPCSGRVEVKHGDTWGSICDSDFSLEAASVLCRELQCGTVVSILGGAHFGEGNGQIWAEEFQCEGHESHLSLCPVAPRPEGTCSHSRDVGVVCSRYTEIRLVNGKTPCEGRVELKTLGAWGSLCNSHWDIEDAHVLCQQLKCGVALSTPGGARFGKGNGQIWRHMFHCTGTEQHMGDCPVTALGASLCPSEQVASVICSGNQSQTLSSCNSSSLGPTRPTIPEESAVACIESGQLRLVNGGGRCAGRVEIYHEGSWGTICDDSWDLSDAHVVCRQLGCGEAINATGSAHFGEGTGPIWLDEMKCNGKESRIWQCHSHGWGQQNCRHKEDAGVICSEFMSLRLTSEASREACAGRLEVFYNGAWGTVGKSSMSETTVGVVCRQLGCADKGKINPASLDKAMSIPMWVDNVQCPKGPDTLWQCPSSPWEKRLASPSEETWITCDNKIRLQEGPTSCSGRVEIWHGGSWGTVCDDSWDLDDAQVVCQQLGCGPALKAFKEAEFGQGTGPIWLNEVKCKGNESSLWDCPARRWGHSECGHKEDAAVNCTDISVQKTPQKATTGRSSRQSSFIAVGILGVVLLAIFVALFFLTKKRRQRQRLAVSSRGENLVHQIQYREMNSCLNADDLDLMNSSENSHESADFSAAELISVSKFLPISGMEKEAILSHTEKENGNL
Description: N=3 *p≤0.05, **p≤0.01, ***p≤0.001, **** p≤0.0001. Two-way ANOVA was used for statistical analysis.

[3] = efficacy dose 10 mg/kg intraperitoneal injection; read-out: Cmax in mouse pups' plasma; cited from earlier work
[4] = test system: preterm lamb model of BPD; assay: Lung histopathology and quantitative histology of lamb lungs; format: in vivo; conditions: for radial alveolar count (RAC) / distal airspace wall thickness / secondary septal volume density: vs vehicle
Description: Terminal tissue collection. The inventors followed the methods the developed for terminal tissue collection.^14,17,26-28 Briefly, at the end of the early-stage study (DOL10) or late-stage study (DOL90 for FPT lambs; DOL60 for term reference lambs), the lambs were given ketamine (10-20 mg/Kg, intramuscularly) followed by face mask inhalation anesthesia with 1.0-2.5% isoflurane with O2. Lambs were intubated and ventilated with a tidal volume of 5-7 mL/kg, and given heparin (1000 U, iv). The lambs were given Beuthanasia solution (0.25 mL/Kg, iv; Intervet Inc., Madison, NJ) followed by potassium chloride (10 mEq, iv; Hospira, Lake Forest, IL).
For morphological analyses, the entire left lung was insufflated with formalin and sampled by systematic, uniform, random methods for quantitative histology.^29 Morphometric and stereologic methods quantified radial alveolar count, secondary septal volume density, and thickness of distal airspace walls.^27 Alveolar capillary growth was quantified by a combination of immunohistochemistry to identify endothelial cells in lung tissue sections and quantitative histology.^27 For capillary surface density measurement, a recombinant anti-CD-34 antibody was used (ab81289, Abcam; Waltham, MA) for the capillary endothelial cell marker. Negative immunostain controls were omission of the primary antibody, omission of the secondary antibody, and substitution of the primary antibody with a species-matched, irrelevant antibody. Epithelium lining the air spaces was counterstained blue. The inventors used a computer-assisted true-color imaging system (Bioquant Life Science, Nashville, TN) to quantify the surface density of alveolar capillaries and the overlying epithelium.

[5] = test system: preterm lamb model of BPD; assay: Neurobehavioral assessments (curiosity, socialization, learning and memory); format: in vivo
Description: Neurobehavioral assessments. The inventors adapted tests for curiosity, using novel objects of different colors and shapes; socialization, using a nonreflective (dull) surface versus a reflective surface (mirror); and learning and memory, using a maze with a reward.^20 These tests were adapted from other studies that assessed the neurobehavior of sheep.^20-25 Assessments were made over 2 weeks.
Habituation (open-field for exploration; days 1 and 2) was used to familiarize the lambs with the test, rest rooms, and tender. Habituation was accomplished on days 1 and 2 by a 10-minute stay in the test room, a 30-minute rest period in the rest room, and another 10-minute stay in the test room. Habituation was repeated the next day.
Tests were (1) curiosity, using novel objects; (2) socialization, using a non-reflective surface and a reflective surface; and (3) learning and memory (using a maze with a milk bottle reward). The tests were done on sequential days over two weeks. Tests were trials of 10-min each, with a 30-min rest period between trials. Each 10-min trial was video recorded, using the Noldus System (model EthoVision XT 17 with the Physiology Integration Module; Noldus Information Technology Inc., Leesburg, VA). The test room had tape on the floor that divided the floor into 9 zones for identification of movement direction and speed, inactivity, etc., in video playback. A ceiling camera recorded each test session. The camera was connected to a dedicated computer with the Noldus software to document lamb activity and time. The novel objects test required four trials on day 3. Trials 1 and 2 used two objects (brown and blue bowls) affixed to the floor. For trial 3, before the lamb was returned to the test room, the brown bowl was replaced with a novelx object (pink pitcher). For trial 4, before the lamb was returned to the test room, a new object (yellow ball) was added with the blue bowl and pink pitcher (3 objects). Analysis was the number of times and the time spent investigating each object.
The socialization test required two trials each on days 4 and 5. Two metallic surfaces were attached to a wall, one with a non-reflective and the other with a reflective surface. Analysis was the number of times and the time spent investigating each surface.
The following week, the learning and memory test required two trials on day 6. A maze made of solid metal panels was set up in the test room. A tender was in one corner of the maze, holding a bottle of milk, the reward for completing the maze. Once the tender was in place, the lamb entered the test room. Analysis was the time to reach the milk bottle reward.

[6] = 3.00 mg/kg bid iv, Day 1, 0 to 12 hr post dose, lamb plasma
[7] = 3.00 mg/kg bid iv, Day 1, lamb plasma
[8] = 2 moC PNA (d90), FPT lambs vs FPT vehicle

CC(=O)NC1C(Oc2ccc([N+](=O)[O-])cc2)OC(CO)C(O)C1O (centres unmarked) [AVR-48]
AUC(0-t) [1, 6]: 4222.9 ± 1835.9 ng·h/mL | Cmax [1, 6]: 3885.7 ± 1458.7 ng/mL | Tmax ([1]; 3.00 mg/kg bid iv, Day 1, 0 to 12 hr post dose, male and female lamb plasma): 15 min | C0 (theoretical Cmax, concentration extrapolated to 0 hr) [1, 7]: 5138.8 ng/mL | CL [1, 7]: 13.19 mL/min/kg | T1/2 [1, 7]: 38.4 ± 14.4 min | Tlast [1, 7]: 4.75 h | Vd [1, 7]: 0.6684 ± 0.129 L/kg | plasma concentration 15 minutes after each repeat dosing ([1]; 3.0 mg/kg iv every 12 h for 7 d, lamb plasma): 3886.6 ± 619.7 ng/mL | Cmax ([1]; 3.0 mg/kg/dose iv, lamb plasma, read-out: Cmax): 10.7 µM | Exposure (AUC(0-t)) over the dose range tested ([1]; 0.1-9 mg/kg/dose iv): increased dose-relatedly; also recorded: increased in a dose-related manner | repeat dose Cmax ([1]; iv every 12 h for 7 d, 0.1-9 mg/kg/dose): consistent and dose-dependent | binding to CD163 scavenger receptor [2]: exhibits a binding affinity | Cmax [3]: 5.7 µM | radial alveolar count (RAC) ([4]; 10d, PT lambs, 3.0 mg/kg): significant increase | distal airspace wall thickness ([4]; 10d, PT lambs): significantly thinner | secondary septal volume density ([4]; 10d, PT lambs): significantly higher | radial alveolar count (RAC) ([4]; 90d, FPT lambs, 3.0 mg/kg): significant increase | distal airspace wall thickness ([4]; 90d, FPT lambs): thinner (but not statistically different) | secondary septal volume density ([4]; 90d, FPT lambs): higher in the AVR-48 lambs (but not statistically different) | development of terminal respiratory units (TRUs) ([4]; early-stage and late-stage studies, 3.0 mg/kg): significantly better development | curiosity and socialization outcomes (time at novel object, dull surface, mirror) ([5]; 1 moC PNA (day of life 60), among groups): No differences were detected | time at novel object (curiosity test) ([5]; 2 moC PNA (d90), FPT lambs 3.0 mg/kg/dose vs FPT vehicle): significantly less time; also recorded: significantly shorter | time at the dull surface (socialization test) [5, 8]: less time (not significant); also recorded: significantly shorter | time at the mirror (reflective surface, socialization test) [5, 8]: more time (not significant); also recorded: significantly longer | time to navigate the maze to reach the milk bottle reward (learning and memory test) [5, 8]: significantly faster; also recorded: less (not significant)
